Test results taken from patent publication US20050267020A1, “Polypeptides derived from inducible hsp70 and pharmaceutical compositions containing the same” (priority 2001, published 2005).

Assays:
[1] = test system: murine CTL lines mCTL134, mCTL380, mCTL391, mCTL393; test: Murine CTL avidity for peptide, 51Cr release cytotoxic assay; assay type: cell-based, HHD mice; settings: peptide concentration, effector:target ratio 40:1, each CTL line with its respective Hsp70 peptide, read-out: avidity (50% of maximal lysis)
Method: The four graphs indicate the cell lysis by CTL lines obtained after stimulation with the following peptides, respectively: HSP134 (line mCTL134), HSP380 (line mCTL380), HSP391 (line mCTL391) and HSP393 (line mCTL393). The avidity of the CTLs for their cellular target is determined with a ^51Cr release assay with an effector:target ratio of 40:1. The percentage of lysis of target cells is expressed on the Y axis, as a function of peptide concentration in the medium, which is represented on the X axis. In each graph, the black curve with diamond-shaped points represent cell lysis in presence of HSP peptides, whereas the grey curve with square points represent cell lysis in presence of cognate HSC peptides.
For measuring the avidity of mCTL134 for cells presenting HSP134, the peptide concentration ranges from […]. For mCTL380, mCTL391 and mCTL393, the respective peptide concentration ranges from 1 pM to 1 μM. The different points on each curve correspond, from left to right, to peptide concentrations of 1 pM, 10 pM, 100 pM, 1 nM, 10 nM, 100 nM and 1 μM.
Generation of CTL in HLA-transgenic mice. […]
Cytotoxic assay. […] After incubation, 100 μL of supernatant was collected and radioactivity was measured in a γ-counter. Percentage of specific lysis was determined as: Lysis=(Experimental Release−Spontaneous Release)/(Maximal Release−Spontaneous Release)×100. […]

[2] = target: T1, HLA-A*0201 (Homo sapiens, UniProt P04439, D140Y/D185E/D98H/E176V/E277Q/G131W/G231S/I119V/I121R/I166T/I218V/L300P/L318F/N151K/N90K/P208A/P217A/Q86G/Q94H/R138H/R169H/T345S); test: Measurement of peptide relative affinity to HLA-A*0201 on T2 cells; assay type: binding; settings: Relative Affinity determination
T1 construct: Tap−/− cells expressing the studied HLA-class I molecule; endogenous in cells; host or cells: T2 cells (Tap-/-, HLA-A*0201)
Method: Measurement of Peptide Relative Affinity to HLA class I. Tap−/− cells expressing the studied HLA-class I molecule (3×10^5 cells/mL) were incubated with various concentrations of peptides ranging from 100 μM to 0.1 μM in serum-free RPMI 1640 medium supplemented with 100 ng/ml of human β-2m at 37° C. for 16 hours. Cells were then washed twice and stained with the specific anti-class I mAb followed by FITC conjugated goat anti mouse Ig mAb to quantify the expression of HLA-A*0201. For each peptide concentration, the HLA-specific staining was calculated as the % of the staining obtained with 100 μM of the reference peptide. The relative affinity (RA) is determined as: RA=(Concentration of each peptide that induces 20% of HLA expression/Concentration of the reference peptide that induces 20% of HLA expression). The lower the RA-value, the stronger is the peptide binding to HLA. The mean RA value for each peptide is determined from at least three independent experiments. […]
The affinity of each peptide was assayed experimentally by determination of the Relative Affinity: the necessary peptide dose to stabilise a reference quantity of HLA-A*0201 molecules at the surface of T2 cells; and the stability of each peptide was assayed by determination of the half-life of the peptide/HLA-A*0201 molecule complex (DC50: dissociation complex 50).

## LMGDKSENV [HSP 380]
[1]
  EC50: ~10 nM

## YLGYPVTNAV [HSP 134(10)]
[2]
  affinity for HLA-A*0201 (in words): strong affinity
